Series [1] concerns acetyl-histone H3 in MV-3 cells. Nature of the series: Immunoblot of acetyl-histone H3 (marker of HDAC1-3 inhibition). It is filed as cell-based. Conditions: 24 h, 3.1 µM, after UV irradiation (365 nm, 10 min). The method, then:
MV-3 cells were seeded to cell culture flasks and cultured for 48 h. Aliquots of the DMSO stock solution (10 mM) designated for photolysis were irradiated for 10 min with the UV reactor (see Section 4.3). The cells were treated with the stock solutions, processed with or without irradiation, of the indicated concentration or vehicle (DMSO) for 24 h. Cell lysis was performed with Cell Extraction Buffer (10 mM Tris, pH 7.4, 100 mM NaCl, 1 mM EDTA, 1 mM EGTA, 1 mM NaF, 20 mM Na4P2O7, 2 mM Na3VO4, 1% Triton™ ×-100, 10% glycerol, 0.1% SDS, 0.5% deoxycholate; Catalog# FNN0011, Thermo Fisher Scientific Inc., Waltham, MA, USA) and addition of Halt Protease Inhibitor Cocktail (100×) (Catalog# 78429, Life Technologies GmbH Carlsbad, CA, USA) and phenylmethanesulfonyl fluoride (Catalog# 10837091001, Sigma-Aldrich, St. Louis, MO, USA) according to manufacturer instructions. Protein content was determined by Pierce™ BCA Protein Assay Kit (Catalog# 23225, Thermo Fisher Scientific Inc., Waltham, MA, USA) according to manufacturer guidelines. Samples were denatured by Laemmli 2× Concentrate (Catalog# S3401-10VL, Sigma-Aldrich, St. Louis, MO, USA), and Precision Plus Protein Unstained Standard was used as molecular weight marker (Catalog# 1610363, Bio-Rad, Hercules, CA, USA). […]
Background: In western blotting, separated proteins are transferred to a membrane and probed.

A short description of series [2]: Photo-uncaging efficiency (HPLC after irradiation at 365 nm). It is filed as physicochemical. The settings on record: 10 min. As for the experimental part:
Photolysis (photo-uncaging) of photocaged HDACi prodrugs was performed at room temperature using a UVP CL-1000 Crosslinker (Analytik Jena GmbH, Jena, Germany) equipped with five UV-A tubes (F8T5/BL368; λmax = 365 nm; Analytik Jena GmbH, Jena, Germany). Hereafter, this entire experimental set-up will be referred to as the “UV reactor”.
For the photo-uncaging efficiency testing, 10 µL of a 1.0 mM DMSO solution of the respective compound was irradiated for 10 min using the UV reactor described above. Subsequently, 90 µL acetonitrile was added, and the samples were analyzed via HPLC. The amount of photo-cleaved HDACi was determined by comparison with a five-point calibration curve of the respective parent inhibitor, using HPLC/UV detection at an appropriate wavelength (area under the curve; area mAu*min).
2. Photouncaging Experiments
Photolysis (photouncaging) of photocaged HDACi prodrugs was performed at room temperature using an UVP CL-1000 Crosslinker (Analytik Jena GmbH, Jena, Germany) equipped with five UV-A tubes (F8T5/BL368; λmax = 365 nm; Analytik Jena GmbH, Jena, Germany). Hereafter, this entire experimental set-up will be referred to as the "UV-reactor".
For the deprotection experiments 10 µL of a 1.0 mM DMSO-solution of the respective compound were irradiated for 10 min using the UV-reactor described above. Subsequently, 90 µL acetonitrile were added and the samples were analyzed via HPLC. The amount of photo-cleaved HDACi was determined by comparison with a five-point calibration curve of the respective parent inhibitor using HPLC/UV detection at an appropriate wavelength (area under the curve; area mAu*min).
Figure S5. Calibration curve of DDK-137 (I).

Experimental findings from paper PMC10056348, “Photocaged Histone Deacetylase Inhibitors as Prodrugs in Targeted Cancer Therapy” (Pharmaceuticals, 2023) are described below.

In the case of `COc1cc(CONC(=O)c2ccc(CN(CC(=O)NCc3ccccc3)C(=O)c3ccc(N(C)C)cc3)cc2)c([N+](=O)[O-])cc1OC` [pc-I, N-[2-(Benzylamino)-2-oxoethyl]-N-(4-{[(4,5-dimethoxy-2-nitrobenzyl)oxy]carbamoyl}benzyl)-4-(dimethylamino)benzamide], the “level of acetyl-histone H3” value in series [1] is given as “higher amount of acetyl-histone-H3”. Also, in series [2] (DMSO, HPLC with calibration curve), the “yield of photo-released parent inhibitor” value is recorded as 82%. Further, the “concentration of photo-released parent inhibitor after irradiation” value in series [2] (initial concentration 100 µM) is 81.5 µM.
